Reference: US20230114728A1 (Venatorx Pharmaceuticals, Inc., priority 2019, published 2023)
≈ marks a conversion by molar mass, not a printed value. Read-outs that look alike come from different tables or passages of the source.

What was measured:
[1] = target: T1, E. coli K12 PBP3 (Escherichia coli, UniProt P0AD68); assay: biochemical; assay type: binding
T1 construct: made in house
Source text: (§1) Example I: Experimental Method for Penicillin-Binding Protein Binding Assays with Bocillin-FL Via Fluorescence Polarization
(§2) To determine the ability of boronic acid-based test PBP inhibitors to bind Penicillin Binding Proteins (PBPs), Bocillin-FL (fluorescently-labeled penicillin V; ThermoFisher Scientific) was used in a fluorescence polarization (FP) competition binding assay to assess inhibitor binding to PBP2, PBP3 or PBP4 from Escherichia coli (K12), PBP3 from Pseudomonas aeruginosa (PA01), PBP1a, PBP2 and PBP3 from Acinetobacter baumannii (ATCC 19606), and PBP2 from Neiserria gonorrheae (FA19). PBPs were cloned and purified as described previously (E. coli PBPs, King, D. T, et al., ACS Infectious Diseases 2015, 1, 175-184; P. aeruginosa PBP3, Han et. al., PNAS 2010, 107 (51), 22002-22007; A. baumannii PBPs, Penwell et. al., Antimicrob. Agents Chemother. 2015, 59 (3), 1680-1689; N. gonorrhoeae PBP2, Singh et. al., J Biol. Chem. 2019, 294 (38), 14020-14032). To establish assay conditions for competition binding, enzyme titration/saturation binding experiments were initially performed. Bocillin-FL was prepared at 0.2 μM in a buffer comprised of 50 mM Hepes (pH 8.0), 300 mM NaCl and 5% (v/v) glycerol for reactions with E. coli, P. aeruginosa and N. gonorrhoeae PBPs, and 25 mM Tris (pH 8.0), 200 mM NaCl and 10% (v/v) glycerol and 0.005% (v/v) Tween 20 for reactions with A. baumannii PBPs. Saturation binding was performed by mixing 40 μl of PBP solutions ranging in concentrations from 0-24 μM with 40 μl of the 0.2 μM Bocillin-FL solution, in individual wells of a black 384-well microplate. FP was measured immediately upon mixing (Excitation, 490 nm; Emission, 520 nm; g-factor, 0.96), using a Cytation3 (BioTek) microplate reader and measured continuously for up to 120 minutes. […] The competition binding assay (80 μl final volume) was validated using beta-lactams and PBPs at final concentrations of: 1.5 μM, E. coli PBP3; 0.75 μM, P. aeruginosa PBP3; 1 μM A. baumannii PBP1a; 2.5 μM A. baumannii PBP2; 0.2 μM A. baumannii PBP3; and […] N. gonorrhoeae PBP2. Bocillin-FL was at 0.1 μM (0.05 μM with A. baumannii PBP1a) and beta-lactam concentrations ranged from 0-1000 μM. […] Bocillin-FL was added and the FP immediately measured for up to 60 minutes (90 minutes for E. coli PBP2). […] The beta-lactam potency was reported as the concentration of beta-lactam required to reduce the amount of PBP bound-Bocillin-FL by 50% (EC50). […] Binding assays for boronic acid PBP inhibitors were performed in an identical fashion for the respective PBPs

[2] = test system: P. aeruginosa (ΔmexAB-oprM); assay: Broth microdilution MIC in CAMHB; assay type: cell-based; conditions: Pseudomonas aeruginosa, read-out: Minimum Inhibitory Concentration, P. aeruginosa ΔmexAB-OprM
Procedure: (§3) Example III: In Vitro Antibacterial Assays
(§4) To determine the ability of test compounds to inhibit the growth of bacterial strains, classic cell based broth microdilution minimum inhibitory concentration (MIC) assays were employed. MIC assays are performed according to CLSI methods except where otherwise noted (CLSI, 2018 and CLSI, 2019). The reference type strain E. coli ATCC 25922; the wild-type parent strain E. coli AG100; the hyper-permeable E. coli 901C and E. coli D22; and the E. coli AG100A strain lacking the acrAB efflux pump encoding genes were used to determine the ability of the PBP inhibitors to penetrate the outer membrane of gram-negative bacteria and inhibit bacterial growth. […] The P. aeruginosa ATCC 27853 and A. baumannii ATCC 19606, along with the hyper-permeable P. aeruginosa ATCC 35151 and an engineered efflux pump-compromised strain of P. aeruginosa (ΔmexAB-oprM) were used to determine the ability of PBP inhibitors to penetrate the outer membrane of P. aeruginosa and A. baumannii and assess antibacterial activity against these important gram-negative organisms.
(§5) Briefly, cryo-preserved bacterial cultures of challenge strains are streaked for isolation on appropriate agar medium, in this case cation-adjusted Mueller Hinton agar. Following incubation to allow growth of the colonies, plates are sealed with parafilm and stored refrigerated for up to two weeks. For preparation of assay inoculum and to ensure low variability, at least 5 colonies are picked from the agar plates with an inoculating loop and aseptically transferred to a culture tube containing 3 mL of cation-adjusted Mueller Hinton broth (CAMHB). The broth culture is grown for 3-5 hours at 37° C. with shaking at 200 rpm. Meanwhile, 2-fold serial dilutions of test compounds are conducted in a 96-well plate with a final volume of 75 μL per well at 2-fold the final desired concentration. After the dilution plates are set up the growing cultures are then diluted in a cuvette containing CAMHB and the optical density is measured at 600 nm. The inoculum is diluted such that 75 μL of this culture in CAMHB results in a starting bacterial concentration of 2-8×10^5 CFU/mL when added to the dilution plates. The plates are incubated for 16-20 hours for Enterobacteriaceae and Pseudomonas and 20-24 hours for Acinetobacter at 37° C. The MIC values are read visually as the lowest concentration well with no bacterial growth.

[3] = test system: E. coli ATCC 25922; assay: Broth microdilution MIC in CAMHB; assay type: cell-based
Procedure: as §3, §4, §5

[4] = test system: E. coli 901C; assay: Broth microdilution MIC in CAMHB; assay type: cell-based; conditions: Escherichia coli, MHB, read-out: Minimum Inhibitory Concentration, E. coli 901C
Procedure: as §3, §4, §5

[5] = test system: P. aeruginosa ATCC 35151; assay: Broth microdilution MIC in CAMHB; assay type: cell-based; conditions: Pseudomonas aeruginosa, ATCC35151; MHB; hyper-permeable strain; read-out: Minimum Inhibitory Concentration, P. aeruginosa ATCC 35151
Procedure: as §3, §4, §5

[6] = test system: E. coli D22; assay: Broth microdilution MIC in CAMHB; assay type: cell-based; conditions: Escherichia coli, MHB, read-out: Minimum Inhibitory Concentration, E. coli D22
Procedure: as §3, §4, §5

[7] = test system: E. coli AG100A; assay: Broth microdilution MIC in CAMHB; assay type: cell-based; conditions: Escherichia coli, read-out: Minimum Inhibitory Concentration, E. coli AG100A
Procedure: as §3, §4, §5

[8] = test system: P. aeruginosa ATCC 27853; assay: Broth microdilution MIC in CAMHB; assay type: cell-based; conditions: Pseudomonas aeruginosa, ATCC27853; MHB; read-out: Minimum Inhibitory Concentration, P. aeruginosa ATCC 27853
Procedure: as §3, §4, §5

[9] = test system: K. pneumoniae 848844 producing SHV-11 and KPC-2; assay: Broth microdilution MIC in CAMHB; assay type: cell-based; conditions: Klebsiella pneumoniae, read-out: Minimum Inhibitory Concentration, K. pneumoniae 848844
Procedure: as §3, §4, §5

[10] = test system: E. coli AG100; assay: Broth microdilution MIC in CAMHB; assay type: cell-based; conditions: Escherichia coli, MHB, read-out: Minimum Inhibitory Concentration, E. coli AG100
Procedure: as §3, §4, §5

[11] = test system: A. baumannii ATCC 19606; assay: Broth microdilution MIC in CAMHB; assay type: cell-based; conditions: Acinetobacter baumannii, ATCC19606; MHB; read-out: Minimum Inhibitory Concentration, A. baumannii ATCC 19606
Procedure: as §3, §4, §5

[12] = test system: K. pneumoniae SI-117 producing VIM-1; assay: Broth microdilution MIC in CAMHB; assay type: cell-based; conditions: Klebsiella pneumoniae, read-out: Minimum Inhibitory Concentration, K. pneumoniae SI-117
Procedure: as §3, §4, §5

[13] = test system: K. pneumoniae UMM producing SHV-5 and KPC-2; assay: Broth microdilution MIC in CAMHB; assay type: cell-based; conditions: Klebsiella pneumoniae, read-out: Minimum Inhibitory Concentration, K. pneumoniae UMM
Procedure: as §3, §4, §5

[14] = target: T2, P. aeruginosa PBP3 (Pseudomonas aeruginosa, UniProt G3XD46); assay: Bocillin-FL fluorescence polarization competition binding assay, P. aeruginosa PBP3; conditions: fluorescence polarization competition binding assay using Bocillin-FL
T2 construct: made in house
T2 sequence (G3XD46 whole entry): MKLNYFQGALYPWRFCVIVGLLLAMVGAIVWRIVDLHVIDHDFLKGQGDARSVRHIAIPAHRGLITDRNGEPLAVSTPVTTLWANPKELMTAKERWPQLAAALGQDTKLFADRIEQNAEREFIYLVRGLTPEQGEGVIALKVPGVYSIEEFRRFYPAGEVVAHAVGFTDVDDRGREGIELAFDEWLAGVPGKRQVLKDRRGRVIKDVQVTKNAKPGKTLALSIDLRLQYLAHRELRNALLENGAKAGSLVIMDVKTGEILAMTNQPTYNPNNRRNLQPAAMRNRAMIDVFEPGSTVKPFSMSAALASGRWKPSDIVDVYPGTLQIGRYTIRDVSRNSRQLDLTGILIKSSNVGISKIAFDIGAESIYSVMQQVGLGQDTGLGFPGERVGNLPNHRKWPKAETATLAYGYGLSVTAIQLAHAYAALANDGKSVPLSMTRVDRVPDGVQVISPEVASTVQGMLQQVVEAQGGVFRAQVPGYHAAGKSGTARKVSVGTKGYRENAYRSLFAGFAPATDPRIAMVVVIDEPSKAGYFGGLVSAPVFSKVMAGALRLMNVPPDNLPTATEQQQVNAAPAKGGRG
Source text: as §1, §2

[15] = Escherichia coli, ATCC25922; E. coli ATCC 25922; MHB; read-out: Minimum Inhibitory Concentration, E. coli 25922
[16] = E. coli AG100 (wild-type parent)

T1 sequence (P0AD68 1-577): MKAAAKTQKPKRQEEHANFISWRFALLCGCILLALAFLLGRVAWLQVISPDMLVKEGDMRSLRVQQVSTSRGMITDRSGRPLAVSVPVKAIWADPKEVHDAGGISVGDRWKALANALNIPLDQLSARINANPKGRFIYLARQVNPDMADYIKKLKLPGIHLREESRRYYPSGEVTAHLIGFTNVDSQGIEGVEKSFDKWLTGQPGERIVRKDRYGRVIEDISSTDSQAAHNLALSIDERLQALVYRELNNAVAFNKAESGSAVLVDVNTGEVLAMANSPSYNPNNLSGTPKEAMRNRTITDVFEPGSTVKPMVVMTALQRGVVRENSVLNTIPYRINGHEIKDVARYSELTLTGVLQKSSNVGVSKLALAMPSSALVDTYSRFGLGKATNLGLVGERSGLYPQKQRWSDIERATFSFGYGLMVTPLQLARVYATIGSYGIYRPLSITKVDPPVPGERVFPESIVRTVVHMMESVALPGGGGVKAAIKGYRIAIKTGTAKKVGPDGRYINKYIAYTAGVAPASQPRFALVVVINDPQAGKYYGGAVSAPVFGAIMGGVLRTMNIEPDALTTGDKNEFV

SMILES	EC50 [1]	MIC [2]	MIC [3, 15]	MIC ([4]; E. coli 901C (hyper-permeable))	MIC [5]	MIC ([6]; E. coli D22 (hyper-permeable))	MIC [7]	MIC [8]	MIC [9]	MIC [10, 16]	MIC [11]	MIC [12]	MIC [13]	P. aeruginosa PBP3 Potency [14]	MIC ([3]; Escherichia coli, ATCC25922; MHB; E. coli ATCC 25922; read-out: Minimum Inhibitory Concentration, E. coli 25922)	MIC ([4]; hyper-permeable E. coli 901C)	MIC ([6]; hyper-permeable E. coli D22)	MIC ([10]; wild-type parent strain E. coli AG100)
NS(=O)(=O)Nc1ccc(F)c([C@@H](NC(=O)N2CCN(CC(F)(F)F)C(=O)C2=O)C(=O)N[C@H]2Cc3cccc(C(=O)O)c3OB2O)c1 (single isomer, unassigned) [Example 219]	< 30 µM	8 to 16 µg/mL (≈ 11.9 to 23.7 µM)	32 to 64 µg/mL (≈ 47.5 to 94.9 µM)	0.5 to 1 µg/mL (≈ 0.741 to 1.48 µM)	2 to 4 µg/mL (≈ 2.97 to 5.93 µM)	2 to 4 µg/mL (≈ 2.97 to 5.93 µM)	2 to 4 µg/mL (≈ 2.97 to 5.93 µM)	> 128 µg/mL	> 128 µg/mL	32 to 64 µg/mL (≈ 47.5 to 94.9 µM)	> 128 µg/mL	32 to 64 µg/mL (≈ 47.5 to 94.9 µM)	32 to 64 µg/mL (≈ 47.5 to 94.9 µM)	D (D represents a potency <10 μM)	–	–	–	–
NCCN1CCCN(C(=O)N[C@@H](C(=O)N[C@H]2Cc3cccc(C(=O)O)c3OB2O)c2c(F)cc(O)cc2F)C1=O (single isomer, unassigned) [Example 230]	30 to 500 µM	32 to 64 µg/mL (≈ 57 to 114 µM)	–	–	2 to 4 µg/mL (≈ 3.56 to 7.13 µM)	–	> 128 µg/mL	> 128 µg/mL	> 128 µg/mL	–	> 128 µg/mL	32 to 64 µg/mL (≈ 57 to 114 µM)	2 to 4 µg/mL (≈ 3.56 to 7.13 µM)	C (C represents a potency between 10 and 30 μM)	> 128 µg/mL	> 128 µg/mL	> 128 µg/mL	> 128 µg/mL
NS(=O)(=O)Nc1cccc([C@H](NC(=O)N2CCN(CC(F)(F)F)C(=O)C2=O)C(=O)N[C@H]2Cc3cccc(C(=O)O)c3OB2O)c1 (single isomer, unassigned) [Example 216]	30 to 500 µM	32 to 64 µg/mL (≈ 48.8 to 97.5 µM)	> 128 µg/mL	2 to 4 µg/mL (≈ 3.05 to 6.09 µM)	8 to 16 µg/mL (≈ 12.2 to 24.4 µM)	8 to 16 µg/mL (≈ 12.2 to 24.4 µM)	32 to 64 µg/mL (≈ 48.8 to 97.5 µM)	> 128 µg/mL	> 128 µg/mL	> 128 µg/mL	> 128 µg/mL	> 128 µg/mL	> 128 µg/mL	C (C represents a potency between 10 and 30 μM)	–	–	–	–
